Series [1] in a line: Evaluation of hepatotoxicity: serum ALT, AST and TBIL after 4 weeks of dosing. Format: in vivo. Particulars: for AST, ALT and TBIL compared with STZ (blank) group (in words): 4 weeks of dosing; for ALT (IU/L) / AST (IU/L) / TBIL (IU/L): serum, once a day for consecutive 4 weeks, x ± SD, n = 6. The method, then:
Experimental example 3 Evaluation of hepatotoxicity of the compounds of the present invention:
The test compounds were administered once a day for consecutive 4 weeks, blood was taken, and the contents of alanine aminotransferase (ALT), aspartate aminotransferase (AST), and total bilirubin (TBIL) were measured.

The subject of another series is normal mice. Kind of series: Oral glucose tolerance test (OGTT) in normal mice. It is filed as in vivo, Kunming mice. Particulars: for effect on oral glucose tolerance in mice (in words): OGTT in normal mice, 20 mg/kg; for blood glucose level at 15 min / blood glucose level at 0 min / blood glucose level at 30 min / blood glucose level at 60 min / blood glucose level at 120 min: 20 mg/kg by gavage, in mmol/L (unit assumed); for blood glucose level at 15 min: 15 min after glucose load; for blood glucose level at 0 min: 30 min after dosing, before glucose load; for blood glucose level at 30 min: 30 min after glucose load; for blood glucose level at 60 min: 60 min after glucose load; for blood glucose level at 120 min: 120 min after glucose load. The method, then: Experimental example 2 In vivo hypoglycemic activity of the compounds of the present invention can be determined by using an assay system as described below:
The mice were fasted for 12 hours before experiment and water was taken freely, each group was administrated by gavage, blood was taken from the tail, and the blood glucose level was measured (recorded as −30 min).

Another series concerns the target hGPR40 receptor (Homo sapiens (Human), UniProt O14842). Kind of series: agonistic activity on hGPR40-CHO stably transfected cells (Fluo-4 / FLIPR). It is filed as cell-based. Conditions: for activation at 0.1 µM / Agonistic activity at 100 nM (%): 100 nM, relative to linoleic acid well; for EC50: mean ± SD of three determinations. The method, then:
Experimental example 1 The agonistic activity of the compounds of the present invention on hGPR40-CHO stably transfected cells
The present invention used the following method to determine the GPR40 agonistic activity of the compounds of the invention:
hGPR40-CHO stably transfected cells were seeded into a 96-well plate at a density of 3×10^4/well, and incubated overnight in a 37° C., 5% CO2 cell incubator; the medium was discarded, 100 μl of HBSS was added to each well, and 100 μl of Fluo-4 dye solution containing Probenecid was added and incubated at 37° C. for 90 min. After the incubation, the Fluo-4 dye solution was sucked out, 100 μl of HBSS buffer was added, and the dye was washed away; 100 μl of HBSS containing Probenecid was added to each well, and incubated at 37° C. for 10 min; different concentrations of drugs were added to each well of the 96-well plate and FLIPR (Molecular Devices) was used for readings according to the parameter setting table. The experimental results were analyzed.

Chain of hGPR40 receptor (O14842 whole entry): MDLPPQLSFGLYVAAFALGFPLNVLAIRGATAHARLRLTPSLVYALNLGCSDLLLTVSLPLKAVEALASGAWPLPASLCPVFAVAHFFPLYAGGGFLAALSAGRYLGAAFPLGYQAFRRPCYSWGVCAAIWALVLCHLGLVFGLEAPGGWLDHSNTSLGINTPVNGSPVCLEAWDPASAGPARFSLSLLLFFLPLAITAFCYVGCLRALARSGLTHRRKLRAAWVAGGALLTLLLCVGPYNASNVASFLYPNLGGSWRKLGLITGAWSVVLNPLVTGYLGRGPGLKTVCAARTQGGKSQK

A word on the EC50: it is the concentration that produces a half-maximal response. For `O=C(O)COc1ccc(NCc2cccc(-c3ccccc3C(F)(F)F)c2)cc1F` [Compound I-8, 2-(4-((2′-trifluoromethyl-[1,1′-biphenyl]-3-methylene)amino)-2-fluorophenoxy)acetic acid], in series [1], the “AST, ALT and TBIL compared with STZ (blank) group (in words)” value (from here on “AST, ALT and TBIL compared with STZ”) is given as “equivalent to the blank group”; the “ALT (IU/L)” value is listed as 46.63 ± 6.2 IU/L; the “AST (IU/L)” value is recorded as 112.85 ± 17.76 IU/L; the “TBIL (IU/L)” value was 2.52 ± 0.3 IU/L. For the same compound, the “effect on oral glucose tolerance in mice (in words)” value (“effect on oral glucose tolerance” below) in the series with normal mice is “significantly improve oral glucose tolerance”. Also, in the series on normal mice (OGTT, n = 8), the “blood glucose level at 15 min” value turned out to be 6.73 ± 0.65, the “blood glucose level at 0 min” value was 4.46 ± 0.47, the “blood glucose level at 30 min” value is 6.82 ± 0.58 and the “blood glucose level at 60 min” value was determined as 5.17 ± 0.39. In the series on normal mice (OGTT, n = 8), the “blood glucose level at 120 min” value was 4.26 ± 0.25. Moreover, on hGPR40 receptor, the activation at 0.1 µM came out at 86% and the EC50 was found to be 11.7 ± 4.8 nM.

Regarding `CCOc1cc(C)c(-c2cccc(CNc3ccc(OCC(=O)O)cc3)c2)c(C)c1` [Compound I-17, 2-(4-((4′-ethoxy-2′,6′-dimethyl-[1,1′-biphenyl]-3-methylene)amino)phenoxy)acetic acid], the “Agonistic activity at 100 nM (%)” value on hGPR40 receptor was found to be 70%.

Turning to `CCOc1ccc(-c2cccc(CNc3ccc(OCC(=O)O)c(F)c3)c2)c(C)c1` [Compound I-13], in series [1], the “AST, ALT and TBIL compared with STZ” value is “equivalent to the blank group”; the “ALT (IU/L)” value came to 52.37 ± 5.3 IU/L; the “AST (IU/L)” value came out at 121.37 ± 13.2 IU/L; the “TBIL (IU/L)” value came to 2.48 ± 0.5 IU/L. Also, the “effect on oral glucose tolerance” value in the series on normal mice is recorded as “significantly improve oral glucose tolerance”. For the same compound, in the series on normal mice (OGTT, n = 8), the “blood glucose level at 15 min” value worked out at 7.25 ± 0.58, the “blood glucose level at 0 min” value is given as 4.61 ± 0.35, the “blood glucose level at 30 min” value was determined as 7.03 ± 0.89 and the “blood glucose level at 60 min” value is reported as 5.25 ± 0.72. The “blood glucose level at 120 min” value in the series on normal mice (OGTT, n = 8) was determined as 4.38 ± 0.37. On hGPR40 receptor, this compound had an activation at 0.1 µM of 85% and an EC50 of 14.6 ± 3.7 nM.

As to `O=C(O)COc1ccc(NCc2cccc(-c3ccccc3C(F)(F)F)c2)cc1` [Compound I-28, 2-(4-((2′-trifluoromethyl-[1,1′-biphenyl]-3-methylene)amino)phenoxy)acetic acid], in series [1], the “ALT (IU/L)” value is on record as 49.36 ± 7.8 IU/L, the “AST (IU/L)” value is recorded as 119.68 ± 7.3 IU/L and the “TBIL (IU/L)” value came to 2.57 ± 0.5 IU/L. Besides, the “effect on oral glucose tolerance” value in the series with normal mice is reported as “significantly improve oral glucose tolerance”. In the series on normal mice (OGTT, n = 8), the “blood glucose level at 15 min” value came to 8.59 ± 0.38, the “blood glucose level at 0 min” value was 4.56 ± 0.48, the “blood glucose level at 30 min” value stood at 7.43 ± 0.56 and the “blood glucose level at 60 min” value is given as 5.30 ± 0.26. Besides, the “blood glucose level at 120 min” value in the series with normal mice (OGTT, n = 8) was found to be 4.21 ± 0.45. In addition, the “blood glucose level at −30 min” value in the series on normal mice (OGTT, fasted mice, before dosing, x ± SD, n = 8) is recorded as 4.35 ± 0.36. At hGPR40 receptor, the “Agonistic activity at 100 nM (%)” value is 81% and a half-maximal response (EC50) required 17.9 ± 2.9 nM.

At hGPR40 receptor, `CCOc1cc(C)c(-c2cccc(CNc3ccc(OCC(=O)O)c(F)c3)c2)c(C)c1` [Compound I-1, 2-(4-((4′-ethoxy-2′,6′-dimethyl-[1,1′-biphenyl]-3-methylene)amino)-2-fluorophenoxy) acetic acid] displayed an activation at 0.1 µM of 79%.

In the case of `COc1ccc(-c2cccc(CNc3ccc(OCC(=O)O)c(F)c3)c2)c(C)c1` [Compound I-19], in series [1], the “ALT (IU/L)” value was determined as 50.33 ± 4.6 IU/L, the “AST (IU/L)” value is 123.45 ± 7.8 IU/L and the “TBIL (IU/L)” value is recorded as 2.68 ± 0.3 IU/L. For the same compound, in the series on normal mice (OGTT, n = 8), the “blood glucose level at 15 min” value is 9.08 ± 0.62, the “blood glucose level at 0 min” value came out at 4.45 ± 0.56, the “blood glucose level at 30 min” value is recorded as 8.21 ± 0.39 and the “blood glucose level at 60 min” value worked out at 5.23 ± 0.21. The “blood glucose level at 120 min” value in the series on normal mice (OGTT, n = 8) is reported as 4.41 ± 0.44. Moreover, at hGPR40 receptor, the activation at 0.1 µM is 80% and the midpoint of the response, the EC50, lay at 18.4 ± 2.2 nM.

Compound `COc1cc(C)c(-c2cccc(CNc3ccc(OCC(=O)O)c(F)c3)c2)c(C)c1` [Compound I-20, 2-(4-((4′-methoxy-2′,6′-dimethyl-[1,1′-biphenyl]-3-methylene)amino)-2-fluorophenoxy)acetic acid] returned an activation at 0.1 µM on hGPR40 receptor of 68%.

`CCCOc1ccc(-c2cccc(CNc3ccc(OCC(=O)O)c(F)c3)c2)c(C)c1` [Compound I-15]: on hGPR40 receptor, the activation at 0.1 µM is 75% and the EC50 worked out at 28.4 ± 2.8 nM.

On to `Cc1cc(OC(F)(F)F)ccc1-c1cccc(CNc2ccc(OCC(=O)O)cc2)c1` [Compound I-30, 2-(4-((4′-trifluoromethoxy-2′-methyl-[1,1′-biphenyl]-3-methylene)amino)phenoxy)acetic acid], for which, on hGPR40 receptor, the “Agonistic activity at 100 nM (%)” value stood at 76%.

Turning to `CC(C)c1ccccc1-c1cccc(CNc2ccc(OCC(=O)O)c(F)c2)c1` [Compound I-16], the activation at 0.1 µM on hGPR40 receptor was 63%.

With `Cc1cc(OC(F)(F)F)cc(C)c1-c1cccc(CNc2ccc(OCC(=O)O)cc2)c1` [Compound I-29, 2-(4-((4′-trifluoromethoxy-2′,6′-dimethyl-[1,1′-biphenyl]-3-methylene)amino)phenoxy)acetic acid], the “Agonistic activity at 100 nM (%)” value on hGPR40 receptor is 62%.

Regarding `Cc1ccc(-c2cccc(CNc3ccc(OCC(=O)O)c(F)c3)c2)c(Cl)c1` [Compound I-5, 2-(4-((2′-chloro-4′-methyl-[1,1′-biphenyl]-3-methylene)amino)-2-fluorophenoxy)acetic acid], the activation at 0.1 µM on hGPR40 receptor came to 73%.

With `Cc1cc(OCCCS(C)(=O)=O)cc(C)c1-c1cccc(COc2ccc3c(c2)OC[C@H]3CC(=O)O)c1` [TAK-875, reference compound], in series [1], the “AST, ALT and TBIL compared with STZ” value is “AST was higher than STZ group”; the “ALT (IU/L)” value stood at 72.83 ± 8.4 IU/L; the “AST (IU/L)” value is listed as 149.33 ± 15.6 IU/L; the “TBIL (IU/L)” value worked out at 2.98 ± 0.4 IU/L. Besides, in the series with normal mice (OGTT, n = 8), the “blood glucose level at 15 min” value turned out to be 9.68 ± 0.46, the “blood glucose level at 0 min” value amounted to 4.53 ± 0.25, the “blood glucose level at 30 min” value worked out at 8.61 ± 0.45 and the “blood glucose level at 60 min” value worked out at 5.47 ± 0.56. Further, the “blood glucose level at 120 min” value in the series on normal mice (OGTT, n = 8) is 4.46 ± 0.57. The “Agonistic activity at 100 nM (%)” value at hGPR40 receptor was 65%.

The compound `O=C(O)COc1ccc(NCc2cccc(-c3ccccc3F)c2)cc1F` [Compound I-4, 2-(4-((2′-fluoro-[1,1′-biphenyl]-3-methylene)amino)-2-fluorophenoxy)acetic acid] yielded an activation at 0.1 µM on hGPR40 receptor of 65%.

`CCCOc1cc(C)c(-c2cccc(CNc3ccc(OCC(=O)O)c(F)c3)c2)c(C)c1` [Compound I-9, 2-(4-((4′-propoxy-2′,6′-dimethyl-[1,1′-biphenyl]-3-methylene)amino)-2-fluorophenoxy) acetic acid]: the activation at 0.1 µM on hGPR40 receptor amounted to 67%.

The term melting point denotes the temperature, or range, at which the solid turns liquid. With `CCCCCCOc1cc(C)c(-c2cccc(CNc3ccc(OCC(=O)O)cc3)c2)c(C)c1` [Compound I-43, 2(4-(((4′-(hexyloxy)-2′,6′-dimethyl-[1,1′-biphenyl]-3-yl)methyl)amino)phenoxy)acetic acid], the melting point was 130 to 132 °C.

Consider `O=C(O)COc1ccc(NCc2cccc(-c3ccccc3Cl)c2)cc1F` [Compound I-2, 2-(4-((2′-chloro-[1,1′-biphenyl]-3-methylene)amino)-2-fluorophenoxy)acetic acid], for which, in series [1], the “AST, ALT and TBIL compared with STZ” value is on record as “equivalent to the blank group”; the “ALT (IU/L)” value turned out to be 47 ± 5.3 IU/L; the “AST (IU/L)” value turned out to be 118.43 ± 11.5 IU/L; the “TBIL (IU/L)” value was found to be 2.61 ± 0.5 IU/L. Further, the “effect on oral glucose tolerance” value in the series on normal mice is “significantly improve oral glucose tolerance”. Also, in the series with normal mice (OGTT, n = 8), the “blood glucose level at 15 min” value was 6.24 ± 0.39, the “blood glucose level at 0 min” value stood at 4.25 ± 0.38, the “blood glucose level at 30 min” value amounted to 6.73 ± 0.29 and the “blood glucose level at 60 min” value turned out to be 4.28 ± 0.37. The “blood glucose level at 120 min” value with normal mice (OGTT, n = 8) came to 4.17 ± 0.52. On hGPR40 receptor, the activation at 0.1 µM amounted to 84% and the EC50 is 16.3 ± 4.6 nM.

At hGPR40 receptor, `O=C(O)COc1ccc(NCc2cccc(-c3ccccc3)c2)cc1F` [Compound I-11, 2-(4-(([1,1′-biphenyl]-3-methylene)amino)-2-fluorophenoxy)acetic acid] displayed an activation at 0.1 µM of 46%.

Take `COCCOc1cc(C)c(-c2cccc(CNc3ccc(OCC(=O)O)c(F)c3)c2)c(C)c1` [Compound I-10]: the activation at 0.1 µM at hGPR40 receptor amounted to 62%.

At hGPR40 receptor, `CCOc1ccc(-c2cccc(CNc3ccc(OCC(=O)O)cc3)c2)c(C)c1` [Compound I-31] returned an activation at 0.1 µM of 79%.

Take `Cc1cc(OCCCS(C)(=O)=O)cc(C)c1-c1cccc(CNc2ccc(OCC(=O)O)c(F)c2)c1` [Compound I-12]: the activation at 0.1 µM on hGPR40 receptor was 68%.

The values above are taken from US11905230B2, “Phenoxyacetic acid derivatives, preparation method thereof and use thereof as medicament” (CHINA PHARMACEUTICAL UNIVERSITY, priority 2017, dated 2024).
